Measurements taken from ChEMBL document CHEMBL3638540, “Pyrolinone derivative and pharmaceutical composition comprising the same” (2013).
pIC50: −log10 of the molar value.

The compounds below were run against T1, P2X purinoceptor 3 (Homo sapiens, UniProt P56373) (assay: Inhibiton Assay: Inhibition assay using human P2X3 receptor gene (GeneBank accession number Y07683).).
T1 sequence (P56373 whole entry): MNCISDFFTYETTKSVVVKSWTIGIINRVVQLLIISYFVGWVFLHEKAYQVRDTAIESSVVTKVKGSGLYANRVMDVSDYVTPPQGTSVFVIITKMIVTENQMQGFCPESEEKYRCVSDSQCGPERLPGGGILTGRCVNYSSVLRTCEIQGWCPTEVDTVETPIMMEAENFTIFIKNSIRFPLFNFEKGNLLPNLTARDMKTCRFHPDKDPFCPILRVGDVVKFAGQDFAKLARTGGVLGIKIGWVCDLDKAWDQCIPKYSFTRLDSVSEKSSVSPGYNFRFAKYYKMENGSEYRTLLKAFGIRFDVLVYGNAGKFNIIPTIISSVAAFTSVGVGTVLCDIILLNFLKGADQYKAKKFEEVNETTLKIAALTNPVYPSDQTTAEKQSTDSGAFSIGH

SMILES	pIC50
COc1ccccc1C1c2c(n[nH]c2C(C)(C)C)C(=O)N1c1ccc(Br)cc1 (stereo not drawn)	6.62
COc1ncccc1C1c2c(n[nH]c2C(C)(C)C)C(=O)N1c1ccc(Br)cc1 (stereo not drawn)	6.09
COc1ccccc1C1c2c(n[nH]c2C(C)(C)CO)C(=O)N1c1ccc(Br)cc1 (stereo not drawn)	6.33
